Measured values from patent US8173694B2, “Therapeutic agent” (Pentraxin Therapeutics Limited, priority 2001, dated 2012).

Legend:
[1] = biological target: serum amyloid P component (SAP) (Homo sapiens, UniProt P02743); test: Inhibition of SAP binding to amyloid fibrils in vitro; conditions: in vitro inhibition of binding of SAP to amyloid fibrils, protocol of EP 0915088 page 10; read-out: IC50
Description: A method for screening and testing inhibitors of serum amyloid P component (SAP) binding to amyloid fibrils in vitro was devised and used in collaboration with F Hoffmann-La Roche Ltd to identify a suitable lead molecule for drug development. A library of candidate compounds was screened accordingly. The subsequent collaborative medicinal chemistry programme led to synthesis of a family of dicarboxylic acid, pyrrolidone ring containing molecules, of which the most studied is (R)-1-[6-(R)-2-Carboxy-pyrrolidin-1-yl]-6-oxo-hexanoyl]pyrrolidine-2-carboxylic acid. This molecule and related compounds (EP-A-0915088) are modestly potent inhibitors of SAP binding to amyloid fibrils in vitro, with IC50 values around 0.5-1.0 μM.
Further studies determined that each of the following bis-D-Proline compounds were tested for their ability to deplete SAP in vivo as described above. Each of the compounds identified below successfully depleted SAP. In addition, certain of the compounds were further tested for in vitro inhibition of binding of SAP to amyloid fibrils in accordance with the protocol provided in EP 0915088 at page 10, as referenced above. The results are shown in the second column below, where applicable.

[2] = tested on: SAP; test: SAP binding to experimentally induced amyloid deposits in mice; format: in vivo, mouse
Description: The potency of (R)-1-[6-(R)-2-Carboxy-pyrrolidin-1-yl]-6-oxo-hexanoyl]pyrrolidine-2-carboxylic acid in vivo was initially considered to be consistent with its lower IC50 value in vitro. However the decameric assembly of pentameric SAP molecules, induced by the cross linking capacity of the palindromic drug, is an abnormal molecular configuration which, according to the present invention, will be recognised in vivo and promptly cleared from the circulation. This action of the drug, leading to massive depletion of SAP from the plasma, makes a critical contribution to removal of SAP from the amyloid deposits because the SAP in amyloid is derived from, and in equilibrium with, the plasma SAP pool.

[3] = biological target: SAP (Homo sapiens, UniProt P02743); conditions: known low molecular weight ligands; cited from earlier work
Sequence of SAP (Homo sapiens, UniProt P02743) (P02743 20-223): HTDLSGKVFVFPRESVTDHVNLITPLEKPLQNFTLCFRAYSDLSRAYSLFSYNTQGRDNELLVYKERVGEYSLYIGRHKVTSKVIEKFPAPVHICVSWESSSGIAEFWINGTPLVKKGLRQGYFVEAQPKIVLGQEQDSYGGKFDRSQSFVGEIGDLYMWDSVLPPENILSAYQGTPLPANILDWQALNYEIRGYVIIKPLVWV

Sequence of serum amyloid P component (SAP) (P02743 20-223): as above

SMILES	IC50 [1]	also measured
O=C(O)[C@H]1CCCN1C(=O)c1ccc(C(=O)N2CCC[C@@H]2C(=O)O)cc1	700 nM	–
O=C(O)[C@H]1CCCN1C(=O)Cc1cccc(CC(=O)N2CCC[C@@H]2C(=O)O)c1	700 nM	–
Cc1c(OCC(=O)N2CCC[C@@H]2C(=O)O)cccc1OCC(=O)N1CCC[C@@H]1C(=O)O	500 nM	–
O=C(O)[C@H]1CCCN1C(=O)COc1ccc(OCC(=O)N2CCC[C@@H]2C(=O)O)cc1	300 nM	–
O=C(O)[C@H]1CCCN1C(=O)Cc1ccc(CC(=O)N2CCC[C@@H]2C(=O)O)cc1	350 nM	–
O=C(O)[C@H]1CCCN1C(=O)COc1ccccc1OCC(=O)N1CCC[C@@H]1C(=O)O	400 nM	–
CC(CS)C(=O)N1CCC[C@@H]1C(=O)O (stereo partly drawn) [1-(3-Mercapto-2-methyl-1-oxopropyl)-D-proline]	–	Binding of SAP to experimentally induced amyloid deposits [2]: inhibits binding of SAP; Dissociation of SAP already bound in amyloid deposits [2]: dissociates SAP that is already bound in the deposits
CO[C@@H]1O[C@@H]2COC(C)(C(=O)O)O[C@@H]2[C@H](O)[C@H]1O (stereo partly drawn) [MOβDG, methyl 4,6-O-(1-carboxyethylidene)-β-D-galactopyranoside]	–	Affinity of binding by SAP [3]: about millimolar
NCCOP(=O)(O)O [phosphoethanolamine]	–	Affinity of binding by SAP [3]: about millimolar
